Experimental data reported in patent US20180185408A1, “ANTIFUNGAL NYLON-3 POLYMERS AND COMBINATION THERAPY USING THEM TO TREAT FUNGAL INFECTIONS” (priority 2016, published 2018).
In brackets after ≈: the same amount, converted by molar mass. Read-outs that look alike come from different tables or passages of the source. Marks after values point to notes of the source that are not given here.

Assays:
Saccharomyces cerevisiae = assay: MIC100 against yeast (CLSI M27-A3); assay type: cell-based; conditions: Saccharomyces cerevisiae W303
Candida albicans = assay: Checkerboard microdilution synergy (FIC); assay type: cell-based; conditions: for MIC: Candida albicans; for MIC Combined: FLC and MM:TM in combination
Cryptococcus amylolentus = assay: MIC100 against yeast (CLSI M27-A3); assay type: cell-based
C. krusei = assay: MIC100 against yeast (CLSI M27-A3); assay type: cell-based, Candida krusei
[1] = MM:TM (40:60) with Fluconazole, isolate K1 (Fluconazole Resistant), […]10^5 cells/mL, 30° C.

`OC(Cn1cncn1)(Cn1cncn1)c1ccc(F)cc1F` [FLC, fluconazole] was tested, and the MIC50 (Saccharomyces cerevisiae) was under 1 µg/mL, the MIC (Candida albicans; 48 h, K1, FLC and MM:TM, single agent, […]10^5 cells/mL, 30°C, OD600 48 h, read-out: MIC Alone) was over 164 µM and the MIC (Candida albicans; 48 h, K1, Fluconazole and MM:TM, […]10^5 cells/mL, 30°C, OD600 48 h, Avg., read-out: MIC alone) was over 163 µM. For the same compound, the MIC (Candida albicans; 48 h, K1, Fluconazole and MM:TM, […]10^5 cells/mL, 30°C, OD600 48 h, trial 1, read-out: MIC alone) was over 81.6 µM, the MIC (Candida albicans; 48 h, K1, Fluconazole and MM:TM, […]10^5 cells/mL, 30°C, OD600 48 h, trial 2, read-out: MIC alone) was over 163 µM and the MIC (Candida albicans; 48 h, K1, Fluconazole and MM:TM, […]10^5 cells/mL, 30°C, OD600 48 h, trial 3, read-out: MIC alone) was over 81.6 µM. It also gave an MIC (Candida albicans; 48 h, K1, fluconazole and MM:TM, […]10^5 cells/mL, 30°C, OD600 48 h, Avg., read-out: MIC alone) of over 50 µg/mL, an MIC (Candida albicans; 48 h, K1, fluconazole and MM:TM, […]10^5 cells/mL, 30°C, OD600 48 h, trial 1, read-out: MIC alone) of over 25 µg/mL and an MIC (Candida albicans; 48 h, K1, fluconazole and MM:TM, […]10^5 cells/mL, 30°C, OD600 48 h, trial 2, read-out: MIC alone) of over 50 µg/mL. It also gave an MIC (Candida albicans; 48 h, K1, fluconazole and MM:TM, […]10^5 cells/mL, 30°C, OD600 48 h, trial 3, read-out: MIC alone) of over 25 µg/mL, an MIC (Candida albicans; [1]) of over 50 µg/mL and an MIC (Candida albicans; NM20 with Fluconazole, C. albicans K1, […] 10^5 cells/mL) of over 25 µg/mL. The MIC (Candida albicans; SC5314, 48 h, SC5314, FLC and MM:TM, single agent, […]10^5 cells/mL, 30°C, OD600 48 h, read-out: MIC Alone) was under 1 µM, the MIC (Candida albicans; SC5314, 48 h, SC5314, Fluconazole and MM:TM, […]10^5 cells/mL, 30°C, OD600 48 h, Avg., read-out: MIC alone) was under 1 µM and the MIC (Candida albicans; SC5314, 48 h, SC5314, Fluconazole and MM:TM, […]10^5 cells/mL, 30°C, OD600 48 h, trial 1, read-out: MIC alone) was under 0.7 µM. It also gave an MIC (Candida albicans; SC5314, 48 h, SC5314, Fluconazole and MM:TM, […]10^5 cells/mL, 30°C, OD600 48 h, trial 2, read-out: MIC alone) of under 2.6 µM, an MIC (Candida albicans; SC5314, 48 h, SC5314, Fluconazole and MM:TM, […]10^5 cells/mL, 30°C, OD600 48 h, trial 3, read-out: MIC alone) of under 1.3 µM and an MIC (Candida albicans; SC5314, 48 h, SC5314, fluconazole and MM:TM, […]10^5 cells/mL, 30°C, OD600 48 h, Avg., read-out: MIC alone) of under 0.3 µg/mL. It also gave an MIC (Candida albicans; SC5314, 48 h, SC5314, fluconazole and MM:TM, […]10^5 cells/mL, 30°C, OD600 48 h, trial 1, read-out: MIC alone) of under 0.2 µg/mL, an MIC (Candida albicans; SC5314, 48 h, SC5314, fluconazole and MM:TM, […]10^5 cells/mL, 30°C, OD600 48 h, trial 2, read-out: MIC alone) of under 0.8 µg/mL and an MIC (Candida albicans; SC5314, 48 h, SC5314, fluconazole and MM:TM, […]10^5 cells/mL, 30°C, OD600 48 h, trial 3, read-out: MIC alone) of under 0.4 µg/mL. The MIC (Candida albicans; SC5314, NM20 with Fluconazole, C. albicans SC5314, […] 10^5 cells/mL) was over 25 µg/mL, the MIC (Candida albicans; SC5314, Table 43, MM:TM with Fluconazole, isolate SC5314, […] 10^5 cells/mL) was under 0.3 µg/mL and the MIC (Candida albicans; Table 43, MM:TM with Fluconazole, isolate K1, […] 10^5 cells/mL) was over 50 µg/mL. For the same compound, the “MIC Combined” value (Candida albicans; K1, […]10^5 cells/mL, 30°C, OD600 48 h) was <1.3^i μM, the FIC (Candida albicans; K1, Fluconazole and MM:TM, Avg., Table 13) was 0.002 and the MIC combo (Candida albicans; K1, Fluconazole and MM:TM, […]10^5 cells/mL, 30°C, OD600 48 h, Avg.) was under 1.3 µM. For the same compound, the MIC combo (Candida albicans; K1, Fluconazole and MM:TM, […]10^5 cells/mL, 30°C, OD600 48 h, trial 1) was under 1.3 µM, the MIC combo (Candida albicans; K1, Fluconazole and MM:TM, […]10^5 cells/mL, 30°C, OD600 48 h, trial 2) was under 2.6 µM and the MIC combo (Candida albicans; K1, Fluconazole and MM:TM, […]10^5 cells/mL, 30°C, OD600 48 h, trial 3) was under 1.3 µM. It also gave an FIC (Candida albicans; K1, Fluconazole and MM:TM, trial 1, Table 13) of 0.004, an FIC (Candida albicans; K1, Fluconazole and MM:TM, trial 2, Table 13) of 0.004 and an FIC (Candida albicans; K1, Fluconazole and MM:TM, trial 3, Table 13) of 0.004. For the same compound, the FIC (Candida albicans; K1, fluconazole and MM:TM, Avg.) was 0.002, the MIC combo (Candida albicans; K1, fluconazole and MM:TM, […]10^5 cells/mL, 30°C, OD600 48 h, Avg.) was under 0.4 µg/mL and the MIC combo (Candida albicans; K1, fluconazole and MM:TM, […]10^5 cells/mL, 30°C, OD600 48 h, trial 1) was under 0.4 µg/mL. For the same compound, the MIC combo (Candida albicans; K1, fluconazole and MM:TM, […]10^5 cells/mL, 30°C, OD600 48 h, trial 2) was under 0.8 µg/mL, the MIC combo (Candida albicans; K1, fluconazole and MM:TM, […]10^5 cells/mL, 30°C, OD600 48 h, trial 3) was under 0.4 µg/mL and the FIC (Candida albicans; K1, fluconazole and MM:TM, trial 1) was 0.004. For the same compound, the FIC (Candida albicans; K1, fluconazole and MM:TM, trial 2) was 0.004, the FIC (Candida albicans; K1, fluconazole and MM:TM, trial 3) was 0.004 and the “improvement in antifungal activity (fluconazole MIC in combination with copolymer)” value (Candida albicans; K1 strain) was at least 100 fold. The FICazole (Candida albicans; [1]) was 0.004, the FICazole (Candida albicans; MM:TM (40:60) with Fluconazole, isolate SC5314 (Senstive), […]10^5 cells/mL, 30° C.) was 1 and the “MIC Combined” value (Candida albicans; SC5314, […]10^5 cells/mL, 30°C, OD600 48 h) was under 1.0 µM. For the same compound, the FIC (Candida albicans; SC5314, Fluconazole and MM:TM, Avg., Table 13) was 1, the MIC combo (Candida albicans; SC5314, Fluconazole and MM:TM, […]10^5 cells/mL, 30°C, OD600 48 h, Avg.) was under 1.0 µM and the MIC combo (Candida albicans; SC5314, Fluconazole and MM:TM, […]10^5 cells/mL, 30°C, OD600 48 h, trial 1) was under 0.7 µM. It also gave an MIC combo (Candida albicans; SC5314, Fluconazole and MM:TM, […]10^5 cells/mL, 30°C, OD600 48 h, trial 2) of under 2.6 µM, an MIC combo (Candida albicans; SC5314, Fluconazole and MM:TM, […]10^5 cells/mL, 30°C, OD600 48 h, trial 3) of under 1.3 µM and an FIC (Candida albicans; SC5314, Fluconazole and MM:TM, trial 1, Table 13) of 1. For the same compound, the FIC (Candida albicans; SC5314, Fluconazole and MM:TM, trial 2, Table 13) was 1, the FIC (Candida albicans; SC5314, Fluconazole and MM:TM, trial 3, Table 13) was 1 and the FIC (Candida albicans; SC5314, fluconazole and MM:TM, Avg.) was 1. The MIC combo (Candida albicans; SC5314, fluconazole and MM:TM, […]10^5 cells/mL, 30°C, OD600 48 h, Avg.) was under 0.3 µg/mL, the MIC combo (Candida albicans; SC5314, fluconazole and MM:TM, […]10^5 cells/mL, 30°C, OD600 48 h, trial 1) was under 0.2 µg/mL and the MIC combo (Candida albicans; SC5314, fluconazole and MM:TM, […]10^5 cells/mL, 30°C, OD600 48 h, trial 2) was under 0.8 µg/mL. The MIC combo (Candida albicans; SC5314, fluconazole and MM:TM, […]10^5 cells/mL, 30°C, OD600 48 h, trial 3) was under 0.4 µg/mL, the FIC (Candida albicans; SC5314, fluconazole and MM:TM, trial 1) was 1 and the FIC (Candida albicans; SC5314, fluconazole and MM:TM, trial 2) was 1. For the same compound, the FIC (Candida albicans; SC5314, fluconazole and MM:TM, trial 3) was 1, the MIC50 (Cryptococcus amylolentus; CBS6039, Cryptococcus amolyentous CBS 6039) was 16 µg/mL (≈ 52.2 µM) and the MIC50 (Cryptococcus amylolentus; CBS6273, Cryptococcus amolyentous CBS 6273) was 16 µg/mL (≈ 52.2 µM). The “polymer efficacy against budding yeasts, 50%” value (C. krusei; C. krusei QC, CLSI QC isolate for susceptibility testing) was 32 and the MIC50 (C. krusei; Pichia kudriavzevii, Candida krusei QC) was 32 µg/mL (≈ 104 µM).
